According to patent US8569344B2, “N-piperidinyl acetamide derivatives as calcium channel blockers” (Zalicus Pharmaceuticals Ltd., priority 2008, dated 2013):

Assays:
[1] = target: T1, human α1G T-type channels (Homo sapiens, UniProt O43497); assay: T-type calcium channel block, whole cell patch clamp in HEK cells (α1G); assay type: cell-based; details: HEK cells, patch clamp, mainly non-inactivated protocol; values above 10 μM shown as 10 μM, below 0.30 μM shown as 0.30 μM; read-out: T-type Calcium Channel Block α1G IC50
T1 construct: expressed in transfected cells; host or cells: HEK 293
T1 sequence (O43497 whole entry): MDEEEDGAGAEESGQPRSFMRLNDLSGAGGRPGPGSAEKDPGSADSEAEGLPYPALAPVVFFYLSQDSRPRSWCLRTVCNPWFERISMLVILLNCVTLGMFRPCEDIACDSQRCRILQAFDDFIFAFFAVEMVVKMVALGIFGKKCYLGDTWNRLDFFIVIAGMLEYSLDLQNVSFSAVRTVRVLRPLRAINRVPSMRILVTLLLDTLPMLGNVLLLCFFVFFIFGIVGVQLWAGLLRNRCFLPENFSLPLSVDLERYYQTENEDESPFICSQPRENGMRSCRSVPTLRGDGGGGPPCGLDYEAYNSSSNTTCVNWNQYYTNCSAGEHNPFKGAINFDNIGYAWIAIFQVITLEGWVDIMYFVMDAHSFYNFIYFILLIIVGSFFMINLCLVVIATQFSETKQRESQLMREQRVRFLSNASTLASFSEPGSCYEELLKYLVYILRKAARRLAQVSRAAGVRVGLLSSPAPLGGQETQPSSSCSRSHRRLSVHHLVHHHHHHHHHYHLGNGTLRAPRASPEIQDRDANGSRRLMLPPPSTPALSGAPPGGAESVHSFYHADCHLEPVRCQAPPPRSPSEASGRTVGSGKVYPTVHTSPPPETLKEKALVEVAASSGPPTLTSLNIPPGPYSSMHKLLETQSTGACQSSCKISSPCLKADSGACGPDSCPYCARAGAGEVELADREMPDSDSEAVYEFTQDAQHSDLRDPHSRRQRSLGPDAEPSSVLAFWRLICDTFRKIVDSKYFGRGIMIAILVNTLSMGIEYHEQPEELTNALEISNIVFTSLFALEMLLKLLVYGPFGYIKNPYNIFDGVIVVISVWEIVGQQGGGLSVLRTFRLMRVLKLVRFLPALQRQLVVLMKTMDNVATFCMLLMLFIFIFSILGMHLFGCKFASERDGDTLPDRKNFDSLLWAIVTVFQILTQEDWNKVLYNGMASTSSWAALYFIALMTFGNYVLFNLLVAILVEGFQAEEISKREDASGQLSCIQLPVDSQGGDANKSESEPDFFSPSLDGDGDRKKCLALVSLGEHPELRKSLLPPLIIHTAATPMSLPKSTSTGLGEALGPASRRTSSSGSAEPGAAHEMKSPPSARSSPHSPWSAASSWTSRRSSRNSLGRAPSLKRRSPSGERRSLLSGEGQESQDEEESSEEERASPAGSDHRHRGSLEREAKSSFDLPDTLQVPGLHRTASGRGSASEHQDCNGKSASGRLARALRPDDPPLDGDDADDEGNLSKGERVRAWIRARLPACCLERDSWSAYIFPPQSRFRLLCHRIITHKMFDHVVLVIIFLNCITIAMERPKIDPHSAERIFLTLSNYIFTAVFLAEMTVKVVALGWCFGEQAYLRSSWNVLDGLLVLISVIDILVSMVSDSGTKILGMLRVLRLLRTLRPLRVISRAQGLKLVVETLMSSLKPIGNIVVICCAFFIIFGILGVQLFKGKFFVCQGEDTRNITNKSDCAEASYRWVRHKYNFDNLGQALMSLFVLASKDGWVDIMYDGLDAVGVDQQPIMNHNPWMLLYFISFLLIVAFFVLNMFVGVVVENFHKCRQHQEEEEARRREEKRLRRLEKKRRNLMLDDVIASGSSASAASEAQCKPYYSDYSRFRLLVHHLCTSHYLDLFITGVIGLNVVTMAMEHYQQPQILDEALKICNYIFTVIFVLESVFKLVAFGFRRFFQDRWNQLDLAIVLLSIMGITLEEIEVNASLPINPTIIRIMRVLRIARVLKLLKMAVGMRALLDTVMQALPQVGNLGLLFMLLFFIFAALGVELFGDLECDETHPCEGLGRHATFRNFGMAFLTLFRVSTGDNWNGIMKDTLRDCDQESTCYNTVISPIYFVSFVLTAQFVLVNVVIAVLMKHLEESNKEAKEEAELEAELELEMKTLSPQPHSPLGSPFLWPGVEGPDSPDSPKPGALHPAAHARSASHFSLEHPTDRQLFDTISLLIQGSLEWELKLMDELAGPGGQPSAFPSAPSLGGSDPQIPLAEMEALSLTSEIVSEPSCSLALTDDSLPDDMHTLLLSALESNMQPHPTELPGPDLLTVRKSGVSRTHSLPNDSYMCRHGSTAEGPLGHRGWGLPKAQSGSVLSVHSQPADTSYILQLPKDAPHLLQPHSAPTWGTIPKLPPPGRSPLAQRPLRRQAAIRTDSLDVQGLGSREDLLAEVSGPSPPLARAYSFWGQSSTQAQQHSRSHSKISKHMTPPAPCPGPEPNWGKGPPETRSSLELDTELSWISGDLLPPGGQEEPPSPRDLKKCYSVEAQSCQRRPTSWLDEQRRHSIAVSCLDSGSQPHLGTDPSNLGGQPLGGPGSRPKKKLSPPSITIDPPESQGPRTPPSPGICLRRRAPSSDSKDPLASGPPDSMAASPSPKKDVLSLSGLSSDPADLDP

[2] = target: T2, human α1H T-type channels (Homo sapiens, UniProt O95180); assay: T-type calcium channel block, whole cell patch clamp in HEK cells (α1H); assay type: cell-based; details: HEK cells, patch clamp, mainly non-inactivated protocol; values above 10 μM shown as 10 μM; read-out: T-type Calcium Channel Block α1H IC50
T2 construct: expressed in transfected cells; host or cells: HEK 293
T2 sequence (O95180 whole entry): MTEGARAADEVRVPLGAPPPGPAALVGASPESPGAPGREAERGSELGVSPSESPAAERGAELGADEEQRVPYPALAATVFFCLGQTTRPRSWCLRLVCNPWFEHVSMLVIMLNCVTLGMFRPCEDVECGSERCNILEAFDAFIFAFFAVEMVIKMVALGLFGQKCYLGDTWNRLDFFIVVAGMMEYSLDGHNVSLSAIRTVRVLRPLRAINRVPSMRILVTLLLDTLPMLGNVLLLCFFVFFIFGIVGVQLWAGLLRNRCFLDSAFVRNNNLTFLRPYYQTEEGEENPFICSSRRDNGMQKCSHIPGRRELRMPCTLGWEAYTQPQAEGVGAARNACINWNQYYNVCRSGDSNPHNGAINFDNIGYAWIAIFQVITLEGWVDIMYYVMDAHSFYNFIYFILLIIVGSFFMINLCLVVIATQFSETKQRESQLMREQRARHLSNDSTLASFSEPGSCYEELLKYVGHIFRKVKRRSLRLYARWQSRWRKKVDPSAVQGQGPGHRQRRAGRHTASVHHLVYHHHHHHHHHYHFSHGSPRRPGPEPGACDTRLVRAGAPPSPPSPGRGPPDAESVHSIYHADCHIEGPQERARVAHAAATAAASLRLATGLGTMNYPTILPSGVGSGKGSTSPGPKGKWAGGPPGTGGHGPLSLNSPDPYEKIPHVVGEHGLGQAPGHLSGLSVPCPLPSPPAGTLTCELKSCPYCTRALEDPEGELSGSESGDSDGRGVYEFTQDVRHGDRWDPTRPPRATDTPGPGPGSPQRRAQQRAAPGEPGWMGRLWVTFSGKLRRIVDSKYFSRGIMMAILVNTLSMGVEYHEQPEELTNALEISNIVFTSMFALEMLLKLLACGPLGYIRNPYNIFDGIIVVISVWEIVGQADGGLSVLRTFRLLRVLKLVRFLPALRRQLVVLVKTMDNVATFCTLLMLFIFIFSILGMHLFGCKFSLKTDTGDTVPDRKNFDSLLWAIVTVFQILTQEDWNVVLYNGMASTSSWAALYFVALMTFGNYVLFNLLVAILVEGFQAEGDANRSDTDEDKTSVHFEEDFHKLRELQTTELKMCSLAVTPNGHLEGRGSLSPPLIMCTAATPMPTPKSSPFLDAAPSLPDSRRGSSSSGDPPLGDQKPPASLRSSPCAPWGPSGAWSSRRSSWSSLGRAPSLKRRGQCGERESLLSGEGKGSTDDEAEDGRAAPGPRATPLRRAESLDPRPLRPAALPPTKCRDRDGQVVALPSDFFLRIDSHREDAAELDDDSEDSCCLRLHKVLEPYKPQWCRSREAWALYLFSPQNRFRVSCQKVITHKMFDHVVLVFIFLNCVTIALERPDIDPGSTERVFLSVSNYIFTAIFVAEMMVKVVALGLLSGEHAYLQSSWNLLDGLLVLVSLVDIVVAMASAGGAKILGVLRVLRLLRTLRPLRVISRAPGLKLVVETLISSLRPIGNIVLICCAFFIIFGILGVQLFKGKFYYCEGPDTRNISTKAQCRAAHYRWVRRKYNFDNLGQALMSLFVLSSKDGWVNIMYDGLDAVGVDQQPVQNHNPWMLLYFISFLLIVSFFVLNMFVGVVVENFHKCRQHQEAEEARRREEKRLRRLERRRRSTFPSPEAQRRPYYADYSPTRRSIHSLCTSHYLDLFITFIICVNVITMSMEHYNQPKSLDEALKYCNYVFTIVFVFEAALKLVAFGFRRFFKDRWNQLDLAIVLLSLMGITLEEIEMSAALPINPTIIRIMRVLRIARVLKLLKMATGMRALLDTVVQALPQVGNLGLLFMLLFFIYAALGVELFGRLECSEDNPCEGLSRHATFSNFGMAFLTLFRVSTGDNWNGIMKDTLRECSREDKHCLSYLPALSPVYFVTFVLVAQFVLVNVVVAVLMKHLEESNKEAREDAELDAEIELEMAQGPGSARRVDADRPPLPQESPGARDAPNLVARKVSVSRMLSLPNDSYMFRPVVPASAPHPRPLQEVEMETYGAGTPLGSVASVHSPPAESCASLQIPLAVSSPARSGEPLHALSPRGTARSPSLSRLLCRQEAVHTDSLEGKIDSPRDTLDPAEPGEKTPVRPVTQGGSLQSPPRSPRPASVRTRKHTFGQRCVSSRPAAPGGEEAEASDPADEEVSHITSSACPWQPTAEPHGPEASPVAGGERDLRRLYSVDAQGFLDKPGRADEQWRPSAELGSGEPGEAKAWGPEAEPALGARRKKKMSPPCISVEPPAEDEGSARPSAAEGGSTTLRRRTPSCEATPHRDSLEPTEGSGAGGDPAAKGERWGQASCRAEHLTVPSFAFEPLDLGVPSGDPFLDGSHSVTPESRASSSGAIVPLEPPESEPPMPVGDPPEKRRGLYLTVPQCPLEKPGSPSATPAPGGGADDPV

IC50 [1]	IC50 [2]	Structure (SMILES)
3280 nM	2170 nM	COc1cc(OC)cc(C(=O)NCC2CCN(CC(=O)NC(C)C)CC2)c1 [Compound 439, N-((1-(2-(isopropylamino)-2-oxoethyl)piperidin-4-yl)methyl)-3,5-dimethoxybenzamide]
< 300 nM	580 nM	O=C(NCC1CCN(C(=O)CNC2CCCCC2)CC1)c1cc(C(F)(F)F)cc(C(F)(F)F)c1 [Compound 249, N-((1-(2-(cyclohexylamino)acetyl)piperidin-4-yl)methyl)-3,5-bis(trifluoromethyl)benzamide]
< 300 nM	90 nM	CC(C)(C(=O)NCCN1CCC(CNC(=O)c2cccc(OC(F)(F)F)c2)CC1)C(F)(F)F [Compound 496, N-((1-(2-(3,3,3-trifluoro-2,2-dimethylpropanamido)ethyl)piperidin-4-yl)methyl)-3-(trifluoromethoxy)benzamide]
> 10000 nM	> 10000 nM	O=C(NCC1CCN(C(=O)CN2CCC(F)(F)C2)CC1)c1cc(C(F)(F)F)cc(C(F)(F)F)c1 [Compound 226, N-((1-(2-(3,3-difluoropyrrolidin-1-yl)acetyl)piperidin-4-yl)methyl)-3,5-bis(trifluoromethyl)benzamide]
< 300 nM	140 nM	Cc1cc(F)cc(C(=O)NCC2CCN(CC(=O)N3CCC[C@H]3C(F)(F)F)CC2)c1 [Compound 464, (S)-3-fluoro-5-methyl-N-((1-(2-oxo-2-(2-(trifluoromethyl)pyrrolidin-1-yl)ethyl)piperidin-4-yl)methyl)benzamide]
> 10000 nM	> 10000 nM	CS(=O)(=O)c1cc(C(=O)NCC2CCN(CC(=O)NC3CCCC3)CC2)cc(C(F)(F)F)c1 [Compound 585, N-((1-(2-(cyclopentylamino)-2-oxoethyl)piperidin-4-yl)methyl)-3-(methylsulfonyl)-5-(trifluoromethyl)benzamide]
400 nM	660 nM	COc1cc(F)cc(C(=O)NCC2CCN(CC(=O)NC3(C4CCOCC4)CC3)CC2)c1 [Compound 562, 3-fluoro-5-methoxy-N-((1-(2-oxo-2-(1-(tetrahydro-2H-pyran-4-yl)cyclopropylamino)ethyl)piperidin-4-yl)methyl)benzamide]
420 nM	130 nM	Cc1cc(C)cc(C(=O)NCC2CCN(CCNC(=O)C(C)(C)C(F)(F)F)CC2)c1 [Compound 488, 3,5-dimethyl-N-((1-(2-(3,3,3-trifluoro-2,2-dimethylpropanamido)ethyl)piperidin-4-yl)methyl)benzamide]
> 10000 nM	> 10000 nM	CC(C)(F)CNC(=O)CN1CCC(CNC(=O)c2cccc(Cl)c2)CC1 [Compound 554, 3-chloro-N-((1-(2-(2-fluoro-2-methylpropylamino)-2-oxoethyl)piperidin-4-yl)methyl)benzamide]
3620 nM	2140 nM	O=C(CN1CCC(CNC(=O)c2cccc(F)c2)CC1)NC1CCCC1 [Compound 535, N-((1-(2-(cyclopentylamino)-2-oxoethyl)piperidin-4-yl)methyl)-3-fluorobenzamide]
5440 nM	2510 nM	CC1(NC(=O)CN2CCC(CNC(=O)c3ccc(F)cc3)CC2)CCC1 [Compound 529, 4-fluoro-N-((1-(2-(1-methylcyclobutyl-amino)-2-oxoethyl)piperidin-4-yl)methyl)benzamide]
490 nM	1560 nM	CC(C)(C)OC(=O)NC1(C(=O)NCCN2CCC(CNC(=O)c3cc(F)cc(C(F)(F)F)c3)CC2)CCC1 [Compound 572, tert-buyl 1-(2-(4-((3-fluoro-5-(trifluoromethyl)benzamido)methyl)piperidin-1-yl)ethylcarbamoyl) cyclobutylcarbamate]
870 nM	490 nM	CC(C)S(=O)(=O)NCCN1CCC(CNC(=O)c2cccc(Br)c2)CC1 [Compound 386, 3-bromo-N-((1-(2-(1-methylethylsulfonamido)ethyl)piperidin-4-yl)methyl)benzamide]
340 nM	7300 nM	CC(C)(C)OC(=O)NCCN1CCC(CNC(=O)c2cc(C(C)(C)C)cc(C(C)(C)C)c2)CC1 [Compound 49, tert-butyl 2-(4-((3,5-di-tert-butylbenzamido)methyl)piperidin-1-yl)ethylcarbamate]
760 nM	1620 nM	COc1cc(Cl)cc(C(=O)NCC2CCN(CCNS(=O)(=O)C(C)C)CC2)c1 [Compound 320, 3-chloro-5-methoxy-N-((1-(2-(1-methylethylsulfonamido)ethyl)piperidin-4-yl)methyl)benzamide]
< 300 nM	170 nM	Cc1cc(C)cc(C(=O)NCC2CCN(CC(=O)NC3(C)CCC3)CC2)c1 [Compound 475, 3,5-dimethyl-N-((1-(2-(1-methylcyclobutylamino)-2-oxoethyl)piperidin-4-yl)methyl) benzamide]
< 300 nM	600 nM	COc1cc(C(=O)NCC2CCN(CCNC(=O)C(C)(C)C)CC2)cc(C(F)(F)F)c1 [Compound 303, 3-methoxy-N-((1-(2-pivalamidoethyl)piperidin-4-yl)methyl)-5-(trifluoromethyl)benzamide]

IC50 [1]	IC50 [2]	Structure (SMILES)
9480 nM	> 10000 nM	CC(C)NC(=O)CN1CCC(CNC(=O)c2cccc(Br)c2)CC1 [Compound 441, 3-bromo-N-((1-(2-(isopropylamino)-2-oxoethyl)piperidin-4-yl)methyl)benzamide]
410 nM	160 nM	CC(C)(C)OC(=O)NCCN1CCC(CNC(=O)c2cc(C(F)(F)F)cc(C(F)(F)F)c2)CC1 [Compound 35, tert-butyl 2-(4-((3,5-bis(trifluoromethyl)benzamido)methyl)piperidin-1-yl)ethylcarbamate]
> 10000 nM	> 10000 nM	Cc1cc(C)cc(C(=O)NCC2CCN(CC(=O)NC(C)C)CC2)c1 [Compound 436, N-((1-(2-(isopropylamino)-2-oxoethyl)piperidin-4-yl)methyl)-3,5-dimethylbenzamide]
770 nM	160 nM	Cc1cc(C)cc(C(=O)NCC2CCN(CCNC(=O)C3(C(F)(F)F)CC3)CC2)c1 [Compound 497, 3,5-dimethyl-N-((1-(2-(1-(trifluoromethyl)cyclopropanecarbox-amido)ethyl)piperidin-4-yl)methyl) benzamide]
> 10000 nM	> 10000 nM	CCCNC(=O)CN1CCC(CNC(=O)c2cc(C)cc(F)c2)CC1 [Compound 446, 3-fluoro-5-methyl-N-((1-(2-oxo-2-(propylamino)ethyl)piperidin-4-yl)methyl)benzamide]
> 10000 nM	> 10000 nM	CC(C)(C)OC(=O)NC(CN1CCC(CC(=O)NCCc2c[nH]c3ccc(F)cc23)CC1)C(C)(C)C (stereo not drawn) [Compound 196, tert-butyl 1-(4-(2-(2-(5-fluoro-1H-indol-3-yl)ethylamino)-2-oxoethyl)piperidin-1-yl)-3,3-dimethylbutan-2-ylcarbamate]
360 nM	740 nM	CC(C)(C)C(=O)NCCN1CCC(CNC(=O)c2cccc(OC(F)(F)F)c2)CC1 [Compound 292, N-((1-(2-pivalamidoethyl)piperidin-4-yl)methyl)-3-(trifluoromethoxy)benzamide]
340 nM	390 nM	O=C(NCC1CCN(CCNS(=O)(=O)C2CCC2)CC1)c1cc(F)cc(C(F)(F)F)c1 [Compound 306, N-((1-(2-(cyclobutanesulfonamido)ethyl)piperidin-4-yl)methyl)-3-fluoro-5-(trifluoromethyl)benzamide]
550 nM	830 nM	O=C(NCC1CCN(CC(=O)N2CCC(F)CC2)CC1)c1cc(F)cc(C(F)(F)F)c1 [Compound 356, 3-fluoro-N-((1-(2-(4-fluoropiperidin-1-yl)-2-oxoethyl)piperidin-4-yl)methyl)-5-(trifluoromethyl)benzamide]
> 10000 nM	> 10000 nM	CCNC(=O)N(C)CCN1CCC(CNC(=O)c2cc(F)cc(C(F)(F)F)c2)CC1 [Compound 524, N-((1-(2-(3-ethyl-1-methylureido)ethyl)piperidin-4-yl)methyl)-3-fluoro-5-(trifluoromethyl) benzamide]
460 nM	220 nM	CN(CCN1CCC(CNC(=O)c2cc(F)cc(C(F)(F)F)c2)CC1)C(=O)C1CCCC1 [Compound 516, 3-fluoro-N-((1-(2-(N-methylcyclopentanecarboxamido)ethyl)piperidin-4-yl)methyl)-5-(trifluoromethyl)benzamide]
< 300 nM	120 nM	CCOC(=O)NC1(CN2CCC(CNC(=O)c3cc(C(F)(F)F)cc(C(F)(F)F)c3)CC2)CCCC1 [Compound 17, ethyl 1-((4-((3,5-bis(trifluoromethyl)benzamido)methyl)piperidin-1-yl)methyl)cyclopentylcarbamate]
1180 nM	3240 nM	CC(C)(C)C1CCN(CC(=O)N2CCC(CNC(=O)c3cc(C(F)(F)F)cc(C(F)(F)F)c3)CC2)CC1 [Compound 258, N-((1-(2-(4-tert-butylpiperidin-1-yl)acetyl)piperidin-4-yl)methyl)-3,5-bis(trifluoromethyl)benzamide]
9730 nM	4640 nM	CCCNC(=O)CN1CCC(CNC(=O)c2cc(OC)cc(OC)c2)CC1 [Compound 448, 3,5-dimethoxy-N-((1-(2-oxo-2-(propylamino)ethyl)piperidin-4-yl)methyl)benzamide]
430 nM	400 nM	Cc1cc(F)cc(C(=O)NCC2CCN(CC(=O)NC3CCCC3)CC2)c1 [Compound 533, N-((1-(2-(cyclopentylamino)-2-oxoethyl)piperidin-4-yl)methyl)-3-fluoro-5-methylbenzamide]
2840 nM	> 10000 nM	CN(CC(=O)N1CCC(CNC(=O)c2cc(F)cc(C(F)(F)F)c2)CC1)C1CCCCC1 [Compound 272, N-((1-(2-(cyclohexyl(methyl)amino)acetyl)piperidin-4-yl)methyl)-3-fluoro-5-(trifluoromethyl)benzamide]
